# Source: ChEMBL document CHEMBL6109114, “Design, synthesis, and biological evaluation of 4-(2-fluorophenoxy)pyridine derivatives as novel FLT3-ITD inhibitors” (Eur J Med Chem, 2025)
# Active and inactive are the calls of the source. The calls are words filed in the database; no cut-off is given here.
# What was measured:
# [1] = tested on: BaF3; assay: Antiproliferative activity against wild type mouse BaF3 cells assessed as inhibition of cell growth measured after 3 days by celltiter-glo luminescent cell viability assay; type: functional, cell-based; conditions: BaF3, 72 h
# [2] = Antiproliferative activity against non-FLT3 expressing human OCI-Ly1 cells assessed as inhibition of cell growth measured after 3 days by celltiter-glo luminescent cell viability assay; type: functional, cell-based; conditions: OCI-Ly1, 72 h
# [3] = Antiproliferative activity against non-FLT3 expressing human TMD8 cells assessed as inhibition of cell growth measured after 3 days by celltiter-glo luminescent cell viability assay; type: functional, cell-based; conditions: TMD8, 72 h
# [4] = Antiproliferative activity against human PBMC cells assessed as inhibition of cell growth measured after 3 days by celltiter-glo luminescent cell viability assay; type: toxicity, cell-based
# [5] = target: T1, Cyclin-dependent kinase 5/CDK5 activator 1 (Homo sapiens) (UniProt Q00535+Q15078); assay: Inhibition of human CDK5/p25 at 1 uM by Eurofins-DiscoverX assay; type: protein-complex assay
# T1 sequence (Q00535 whole entry): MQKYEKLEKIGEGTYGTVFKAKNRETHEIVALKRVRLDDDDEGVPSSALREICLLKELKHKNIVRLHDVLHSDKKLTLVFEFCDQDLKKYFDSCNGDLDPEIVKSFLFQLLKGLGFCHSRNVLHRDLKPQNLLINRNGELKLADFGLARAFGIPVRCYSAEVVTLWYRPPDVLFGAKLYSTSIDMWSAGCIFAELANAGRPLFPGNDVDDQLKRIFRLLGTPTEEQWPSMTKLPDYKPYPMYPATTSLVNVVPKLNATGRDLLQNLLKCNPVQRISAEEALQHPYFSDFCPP
# T1 sequence (Q15078 99-307 partner limits assumed): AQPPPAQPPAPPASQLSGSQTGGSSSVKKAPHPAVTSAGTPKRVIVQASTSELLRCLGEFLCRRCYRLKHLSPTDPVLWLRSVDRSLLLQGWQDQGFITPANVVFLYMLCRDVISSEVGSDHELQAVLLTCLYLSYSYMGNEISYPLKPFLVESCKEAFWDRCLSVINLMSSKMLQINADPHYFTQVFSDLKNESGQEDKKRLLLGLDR
# [6] = target: Cyclin-dependent kinase 2/cyclin A (Homo sapiens) (UniProt P24941+P20248+P78396); assay: Inhibition of human CDK2/CyclinA assessed as remaining activity at 1 uM by Eurofins-DiscoverX assay relative to control; type: protein-complex assay
# [7] = target: T1, Cyclin-dependent kinase 5/CDK5 activator 1 (Homo sapiens); assay: Inhibition of human CDK5/p25 assessed as remaining activity at 1 uM by Eurofins-DiscoverX assay relative to control; type: protein-complex assay
# [8] = target: Receptor-type tyrosine-protein kinase FLT3 (Homo sapiens, UniProt P36888); assay: Inhibition of FLT3 (unknown origin) using Fluorescein-Poly GT as substrate preincubated for 10 mins followed by substrate addition and measured after 30 mins in presence of ATP by mobility shift assay
# Chain of Receptor-type tyrosine-protein kinase FLT3 (P36888 whole entry): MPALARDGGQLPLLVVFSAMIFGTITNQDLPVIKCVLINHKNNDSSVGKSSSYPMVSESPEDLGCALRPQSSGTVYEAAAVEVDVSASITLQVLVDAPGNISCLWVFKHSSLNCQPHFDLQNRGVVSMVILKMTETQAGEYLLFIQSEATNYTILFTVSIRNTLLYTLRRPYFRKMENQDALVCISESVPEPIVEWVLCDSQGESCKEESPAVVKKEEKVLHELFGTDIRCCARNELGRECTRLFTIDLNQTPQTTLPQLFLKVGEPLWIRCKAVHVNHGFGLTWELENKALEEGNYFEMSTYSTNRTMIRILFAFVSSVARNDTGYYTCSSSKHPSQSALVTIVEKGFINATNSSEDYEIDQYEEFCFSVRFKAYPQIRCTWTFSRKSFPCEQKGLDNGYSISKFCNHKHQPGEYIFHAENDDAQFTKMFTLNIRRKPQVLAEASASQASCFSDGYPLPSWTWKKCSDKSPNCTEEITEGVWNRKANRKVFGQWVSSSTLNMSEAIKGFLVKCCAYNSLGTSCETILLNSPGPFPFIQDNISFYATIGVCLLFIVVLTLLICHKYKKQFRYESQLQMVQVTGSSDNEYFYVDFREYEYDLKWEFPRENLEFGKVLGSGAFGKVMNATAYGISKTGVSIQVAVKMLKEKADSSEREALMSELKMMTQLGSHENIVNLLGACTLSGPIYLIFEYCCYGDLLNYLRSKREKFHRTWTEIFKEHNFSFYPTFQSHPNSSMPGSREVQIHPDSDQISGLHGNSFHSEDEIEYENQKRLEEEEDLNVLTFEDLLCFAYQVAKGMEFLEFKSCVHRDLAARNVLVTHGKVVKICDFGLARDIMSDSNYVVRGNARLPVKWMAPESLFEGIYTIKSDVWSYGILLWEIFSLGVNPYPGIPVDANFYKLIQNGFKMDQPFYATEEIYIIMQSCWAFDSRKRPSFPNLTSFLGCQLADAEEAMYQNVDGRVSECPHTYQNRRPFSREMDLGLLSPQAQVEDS
# [9] = target: Vascular endothelial growth factor receptor 3 (Homo sapiens, UniProt P35916); assay: Inhibition of FLT4 (unknown origin) using Fluorescein-Poly GT as substrate preincubated for 10 mins followed by substrate addition and measured after 30 mins in presence of ATP by mobility shift assay
# Chain of Vascular endothelial growth factor receptor 3 (P35916 whole entry): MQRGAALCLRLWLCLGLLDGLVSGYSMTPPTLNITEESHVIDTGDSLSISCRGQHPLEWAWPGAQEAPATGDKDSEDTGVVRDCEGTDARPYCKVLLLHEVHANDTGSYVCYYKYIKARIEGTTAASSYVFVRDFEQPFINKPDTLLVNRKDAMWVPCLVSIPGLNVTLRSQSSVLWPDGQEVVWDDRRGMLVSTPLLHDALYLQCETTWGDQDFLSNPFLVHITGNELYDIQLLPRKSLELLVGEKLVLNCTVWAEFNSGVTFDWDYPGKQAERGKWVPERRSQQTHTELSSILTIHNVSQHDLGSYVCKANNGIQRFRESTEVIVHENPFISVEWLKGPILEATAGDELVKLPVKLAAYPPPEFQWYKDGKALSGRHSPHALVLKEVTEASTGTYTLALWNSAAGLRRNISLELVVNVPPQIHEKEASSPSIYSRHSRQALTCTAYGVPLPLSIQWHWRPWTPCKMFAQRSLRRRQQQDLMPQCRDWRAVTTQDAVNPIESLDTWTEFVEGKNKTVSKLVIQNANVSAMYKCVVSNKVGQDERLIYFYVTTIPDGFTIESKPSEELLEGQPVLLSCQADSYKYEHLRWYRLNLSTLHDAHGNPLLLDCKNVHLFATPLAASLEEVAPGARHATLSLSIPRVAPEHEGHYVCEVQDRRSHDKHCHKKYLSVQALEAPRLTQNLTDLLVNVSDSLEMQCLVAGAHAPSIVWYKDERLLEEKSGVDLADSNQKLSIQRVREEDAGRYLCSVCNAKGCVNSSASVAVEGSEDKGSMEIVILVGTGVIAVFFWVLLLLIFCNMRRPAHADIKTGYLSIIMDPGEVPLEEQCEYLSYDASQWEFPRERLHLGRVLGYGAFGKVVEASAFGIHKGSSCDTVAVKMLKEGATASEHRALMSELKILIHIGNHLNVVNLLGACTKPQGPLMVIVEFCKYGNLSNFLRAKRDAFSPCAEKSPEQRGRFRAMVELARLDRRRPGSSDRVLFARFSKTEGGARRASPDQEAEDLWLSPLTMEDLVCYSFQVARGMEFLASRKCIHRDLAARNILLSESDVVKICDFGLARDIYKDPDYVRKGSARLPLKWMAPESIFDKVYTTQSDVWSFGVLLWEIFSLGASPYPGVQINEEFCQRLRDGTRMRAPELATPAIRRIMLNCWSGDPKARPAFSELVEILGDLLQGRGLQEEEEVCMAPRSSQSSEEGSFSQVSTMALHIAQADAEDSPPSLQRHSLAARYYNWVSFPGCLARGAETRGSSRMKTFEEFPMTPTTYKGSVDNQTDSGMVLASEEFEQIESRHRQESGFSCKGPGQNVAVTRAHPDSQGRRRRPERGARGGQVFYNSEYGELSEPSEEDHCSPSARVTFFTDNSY
# [10] = tested on: BaF3; assay: Antiproliferative activity against mouse BaF3 cells harbouring TEL-FLT3 assessed as inhibition of cell growth measured after 3 days by celltiter-glo luminescent cell viability assay; type: functional, cell-based; conditions: BaF3, 72 h
# [11] = tested on: BaF3; assay: Antiproliferative activity against mouse BaF3 cells harbouring FLT3-ITD-F691L mutant assessed as inhibition of cell growth measured after 3 days by celltiter-glo luminescent cell viability assay; type: functional, cell-based; conditions: BaF3, 72 h
# [12] = target: Receptor-type tyrosine-protein kinase FLT3 (Homo sapiens) (UniProt P36888); assay: Inhibition of FLT3 phosphorylation in human MOLM-13 cells measured after 2 hrs by Western blot analysis; type: cell-based; conditions: dose 0.01-1 µM
# Chain of Receptor-type tyrosine-protein kinase FLT3 (Homo sapiens) (P36888 whole entry): as the sequence (P36888 whole entry) above
# [13] = target: Receptor-type tyrosine-protein kinase FLT3 (Homo sapiens) (UniProt P36888); assay: Inhibition of FLT3 phosphorylation in human MOLM-13 cells at 0.2 uM measured after 2 hrs by Western blot analysis relative to control; type: cell-based
# [14] = tested on: MOLM-13; assay: Inhibition of STAT5 phosphorylation in human MOLM-13 cells at 0.2 uM measured after 2 hrs by Western blot analysis relative to control; type: cell-based
# [15] = tested on: MOLM-13; assay: Induction of apoptosis in human MOLM-13 cells assessed as viable cells at 0.1 uM incubated for 48 hrs by Annexin V-FITC/PI staining based flow cytometry analysis (reference value: 91.9%); type: functional; conditions: read-out: Activity
# [16] = tested on: MOLM-13; assay: Induction of apoptosis in human MOLM-13 cells assessed as early apoptotic cells at 0.1 uM incubated for 48 hrs by Annexin V-FITC/PI staining based flow cytometry analysis (reference value: 4.93%); type: functional
# [17] = tested on: MOLM-13; assay: Induction of apoptosis in human MOLM-13 cells assessed as late apoptotic cells at 1 uM incubated for 48 hrs by Annexin V-FITC/PI staining based flow cytometry analysis (reference value: 3.10%); type: functional
# [18] = tested on: MOLM-13; assay: Induction of apoptosis in human MOLM-13 cells assessed as necrotic cells at 0.1 uM incubated for 48 hrs by Annexin V-FITC/PI staining based flow cytometry analysis (reference value: 0.077%); type: functional
# [19] = tested on: MOLM-13; assay: Induction of apoptosis in human MOLM-13 cells assessed as necrotic cells at 1 uM incubated for 48 hrs by Annexin V-FITC/PI staining based flow cytometry analysis (reference value: 0.077%); type: functional
# [20] = tested on: MOLM-13; assay: Induction of cell cycle arrest in human MOLM-13 cells assessed as accumulation of cells at G1 phase at 0.1 uM incubated for 48 hrs (reference value: 40.3%); type: functional
# [21] = tested on: MOLM-13; assay: Induction of cell cycle arrest in human MOLM-13 cells assessed as accumulation of cells at G1 phase at 0.3 uM incubated for 48 hrs (reference value: 40.3%); type: functional
# [22] = tested on: MOLM-13; assay: Induction of cell cycle arrest in human MOLM-13 cells assessed as accumulation of cells at G1 phase at 1 uM incubated for 48 hrs (reference value: 40.3%); type: functional
# [23] = tested on: MOLM-13; assay: Induction of cell cycle arrest in human MOLM-13 cells assessed as accumulation of cells at S phase at 0.3 uM incubated for 48 hrs (reference value: 41.6%); type: functional
# [24] = tested on: MOLM-13; assay: Induction of cell cycle arrest in human MOLM-13 cells assessed as accumulation of cells at G2 phase at 0.1 uM incubated for 48 hrs (reference value: […]); type: functional
# [25] = tested on: MOLM-13; assay: Induction of cell cycle arrest in human MOLM-13 cells assessed as accumulation of cells at G2 phase at 1 uM incubated for 48 hrs (reference value: […]); type: functional
# [26] = tested on: MOLM-13; assay: Induction of cell cycle arrest in human MOLM-13 cells incubated for 48 hrs; type: functional, cell-based; conditions: dose 0.1-1 µM
# [27] = Metabolic stability in human liver microsomes assessed as half life at 1 uM measured up to 60 mins in presence of NADPH regenerating system by LC-MS/MS analysis; type: ADME, Microsome
# [28] = Metabolic stability in human liver microsomes assessed as intrinsic clearance at 1 uM measured up to 60 mins in presence of NADPH regenerating system by LC-MS/MS analysis; type: ADME, Microsome; conditions: read-out: CLH
# [29] = Metabolic stability in Beagle dog liver microsomes assessed as intrinsic clearance at 1 uM measured up to 60 mins in presence of NADPH regenerating system by LC-MS/MS analysis; type: ADME, Canis lupus familiaris, Microsome; conditions: read-out: CLH
# [30] = Metabolic stability in Beagle dog liver microsomes assessed as parent compound remaining at 1 uM measured after 60 mins in presence of NADPH regenerating system by LC-MS/MS analysis; type: ADME, Canis lupus familiaris, Microsome; conditions: read-out: Stability
# [31] = target: CYP1A2 (Homo sapiens, UniProt P05177); assay: Inhibition of CYP1A2 in human liver microsomes using phenacetin as substrate at 10 uM incubated for 10 mins in presence of NADPH by LC-MS/MS analysis relative to control; type: ADME, Microsome; conditions: probe phenacetin
# Chain of CYP1A2 (P05177 whole entry): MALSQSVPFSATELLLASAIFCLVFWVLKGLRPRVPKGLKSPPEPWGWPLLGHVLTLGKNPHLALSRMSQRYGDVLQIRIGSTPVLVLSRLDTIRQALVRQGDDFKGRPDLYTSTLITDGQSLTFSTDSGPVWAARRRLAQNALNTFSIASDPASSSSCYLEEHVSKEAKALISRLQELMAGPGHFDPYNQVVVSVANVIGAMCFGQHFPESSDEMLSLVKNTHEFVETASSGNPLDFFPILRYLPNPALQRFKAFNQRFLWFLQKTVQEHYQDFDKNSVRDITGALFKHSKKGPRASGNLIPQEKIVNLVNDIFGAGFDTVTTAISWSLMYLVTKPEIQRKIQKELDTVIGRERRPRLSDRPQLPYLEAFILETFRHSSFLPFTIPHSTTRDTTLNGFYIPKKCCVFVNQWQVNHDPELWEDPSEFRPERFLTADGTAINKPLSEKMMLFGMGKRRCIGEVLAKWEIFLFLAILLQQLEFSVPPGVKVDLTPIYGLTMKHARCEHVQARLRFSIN
# [32] = Half life in mouse at 5 mg/kg, iv; type: ADME, organism-based; conditions: in vivo
# [33] = Tmax in mouse at 5 mg/kg, iv; type: ADME, organism-based; conditions: in vivo
# [34] = AUC (0 to infinity) in mouse at 5 mg/kg, iv; type: ADME, organism-based; conditions: in vivo
# [35] = Clearance in mouse at 5 mg/kg, iv; type: ADME, organism-based; conditions: in vivo
# [36] = Tmax in mouse at 10 mg/kg, po; type: ADME, organism-based; conditions: in vivo
# [37] = MRT (0 to t) in mouse at 10 mg/kg, po; type: ADME, organism-based; conditions: in vivo
# [38] = tested on: MOLM-13; assay: Antitumor activity against human MOLM-13 xenografted in male nude mouse assessed as tumor growth inhibition at 30 mg/kg, po administered once daily for 14 days by vernier caliper method relative to control; type: functional; conditions: MOLM-13, 336 h, time 14 day, read-out: TGI
structure (smiles),measurement,setting,value
Cc1cc(=O)n(-c2cc(Cl)ccc2F)nc1C(=O)Nc1ccc(Oc2ccnc(NC(=O)N3CC(O)C3)c2)c(F)c1,IC50,[1],> 10 µM
same,IC50,[2],12.3 µM
same,IC50,[3],22.3 µM
same,IC50 at 3 days,[4],> 30 µM
same,inhibition,[5],inactive
same,Activity,[6],88%
same,Activity,[7],88%
same,IC50,[8],0.475 µM
same,IC50,[9],0.166 µM
same,IC50,[10],3.69 µM
same,IC50,[11],4.9 µM
same,inhibition,[12],Dose-dependent-effect
same,inhibition,[13],100%
same,inhibition,[14],100%
same,viability at 0.1 µM,[15],90.6%
same,Activity,[16],5.69%
same,Activity,[17],36.2%
same,Activity,[18],0.062%
same,Activity,[19],0.74%
same,Activity,[20],50.1%
same,Activity,[21],75.8%
same,Activity,[22],78.2%
same,Activity,[23],17.1%
same,Activity,[24],9.39%
same,Activity,[25],0%
same,Activity,[26],Dose-dependent-effect
same,half-life at 1 µM,[27],1.82 h
same,microsomal CLint at 1 µM,[28],12.7 µL/min/mg
same,microsomal CLint at 1 µM,[29],11.1 µL/min/mg
same,"remaining at 1 h, 1 µM",[30],72.7%
same,"inhibition at 10 min, 10 µM",[31],9.5%
same,half-life,[32],6.57 h
same,Tmax,[33],0.25 h
same,AUC(0-inf),[34],2210 ng·h/mL
same,clearance,[35],38.8 mL/min/kg
same,Tmax,[36],1.17 h
same,MRT last,[37],3.37 h
same,inhibition in vivo at 30 mg/kg,[38],77.1%
